We go through seven compounds from patent US5300629A, “Bactericidal and/or bacteriostatic peptides isolated from hemolymph of honeybees” (Plant Genetic Systems, N.V., priority 1987, dated 1994).

≈ marks a conversion by molar mass, not a printed value. Where a SMILES comes first, the peptide text is derived from it.

Series [1] deals with E. coli NCTC 9001. In kind it is cell-based. Particulars: NCTC 9001, 72 h. As to the method:
Whole lymph or purified components, resuspended in PBS to a final volume equal to the starting material (heated lymph), was applied in 3 mm wells on agar plates seeded with the test organisms. Antibacterial activity was determined by measuring the growth-inhibition zones (in mm).
Test conditions: agar inhibition zone obtained with 10 namomole apidaecin, resuspended in 20 μl H2 O/well.

Series [2] deals with E. coli NCTC 9001. The series is described as follows: Bactericidal activity, method not stated. In kind it is cell-based. Particulars: lyophilized apidaecins resuspended in PBS.
For series [3], the system named is Agrobactierium tumefaciens DSM 3129. The series is described as follows: Minimal inhibitory concentration in liquid culture. In kind it is cell-based. The settings on record: 200 μl rich medium, 10^4 log-phase bacteria.
For series [4], the system named is Corynebacterium insidiosum NCPPB 1109. The series is described as follows: Minimal inhibitory concentration in liquid culture. The settings on record: 200 μl rich medium, 10^4 log-phase bacteria. In kind it is cell-based. As to the method:
(§1) In addition the exact concentration was determined precisely by amino-acid analysis and an equal sample of natural Bee 6b was prepared, allowing to compare the bactericidal activity of both natural and synthetic apidaecins by means of growth inhibition assays in liquid cultures (see mat & Meth.). The minimal inhibitory concentrations (μg/ml) were determined in liquid culture : 200 μl of a rich medium (trypticase soy broth or nutrient broth) was inoculated with 10^4 log-phase bacteria. Peptide concentrations ranged between 0 and 200 μg/ml. The values express μg/ml; when no inhibition was noticed the maximal values are given (+200 μg/ml or +50 μg/ml). All peptides were chemically synthesized, except for bee 6b which is purified from bee lymph.

The subject of series [5] is Corynebacterium michiganense pv. michiganense NCPPB 1573. The series is described as follows: Minimal inhibitory concentration in liquid culture. In kind it is cell-based. Particulars: 200 μl rich medium, 10^4 log-phase bacteria, + = no inhibition at maximal value. As to the method: as §1
A further series has as its system Shigella flexneri CP 87. Briefly: Minimal inhibitory concentration in liquid culture. In kind it is cell-based. The settings on record: 200 μl rich medium, 10^4 log-phase bacteria. As to the method:
as §1

Series [6] concerns Xanthomonas campestris pv. vesicatoria LMG 905. Briefly: Minimal inhibitory concentration in liquid culture. The settings on record: 200 μl rich medium, 10^4 log-phase bacteria, + = no inhibition at maximal value. In kind it is cell-based. As to the method: as §1
Series [7] deals with Erwinia carotovora var atroseptica LMG 2385. The series is described as follows: Minimal inhibitory concentration in liquid culture. In kind it is cell-based. The settings on record: 200 μl rich medium, 10^4 log-phase bacteria.
The subject of series [8] is Erwinia carotovora var carotovora NCPPB 312. Briefly: Minimal inhibitory concentration in liquid culture. In kind it is cell-based. Particulars: 200 μl rich medium, 10^4 log-phase bacteria.
In series [9] the test system is Erwinia salicis NCPPB 2530. Briefly: Minimal inhibitory concentration in liquid culture. In kind it is cell-based. The settings on record: 200 μl rich medium, 10^4 log-phase bacteria.
Series [10] relates to Pseudomonas syringae pv. tomato NCPPB 1106. The series is described as follows: Minimal inhibitory concentration in liquid culture. The settings on record: 200 μl rich medium, 10^4 log-phase bacteria. In kind it is cell-based.
In series [11] the test system is Pseudomonas syringae pv. maculicola NCPPB 1776. Briefly: Minimal inhibitory concentration in liquid culture. In kind it is cell-based. Particulars: 200 μl rich medium, 10^4 log-phase bacteria.
In series [12] the test system is Pseudomonas syringae pv. tabaci NCPPB 1237. Briefly: Minimal inhibitory concentration in liquid culture. The settings on record: 200 μl rich medium, 10^4 log-phase bacteria. In kind it is cell-based.
Series [13] concerns Pseudomonas solanacearum ATCC 11696. In kind it is cell-based. The settings on record: 200 μl rich medium, 10^4 log-phase bacteria.
In series [14] the test system is Rhizobium meliloti ZB 314. The series is described as follows: Minimal inhibitory concentration in liquid culture. In kind it is cell-based. The settings on record: 200 μl rich medium, 10^4 log-phase bacteria.
In series [15] the test system is Xanthomonas campestris pv. campestris A 902. Briefly: Minimal inhibitory concentration in liquid culture. In kind it is cell-based. Particulars: 200 μl rich medium, 10^4 log-phase bacteria, + = no inhibition at maximal value.
Series [16] deals with Citrobacter freundii ATCC 8090. The series is described as follows: Minimal inhibitory concentration in liquid culture. Particulars: 200 μl rich medium, 10^4 log-phase bacteria. In kind it is cell-based.
Series [17] relates to Escherichia coli NCTC 9001. Briefly: Minimal inhibitory concentration in liquid culture. In kind it is cell-based. The settings on record: 200 μl rich medium, 10^4 log-phase bacteria.
For the next series, the system named is Salmonella Newport CD 94. Briefly: Minimal inhibitory concentration in liquid culture. Particulars: 200 μl rich medium, 10^4 log-phase bacteria. In kind it is cell-based.
In series [18] the test system is Salmonella typhimurium ATCC 23565. The series is described as follows: Minimal inhibitory concentration in liquid culture. The settings on record: 200 μl rich medium, 10^4 log-phase bacteria. In kind it is cell-based.
Series [19] concerns Bacillus megaterium QB 1551. Briefly: Minimal inhibitory concentration in liquid culture. Particulars: 200 μl rich medium, 10^4 log-phase bacteria, + = no inhibition at maximal value. In kind it is cell-based.

In the series on E. coli NCTC 9001 [1], `CC[C@H](C)[C@H](NC(=O)[C@@H](N)Cc1ccc(O)cc1)C(=O)N1CCC[C@H]1C(=O)N[C@@H](CCC(N)=O)C(=O)N1CCC[C@H]1C(=O)N[C@@H](CCCNC(=N)N)C(=O)N1CCC[C@H]1C(=O)N1CCC[C@H]1C(=O)N[C@@H](Cc1c[nH]cn1)C(=O)N1CCC[C@H]1C(=O)N[C@@H](CCCNC(=N)N)C(=O)N[C@@H](CC(C)C)C(=O)O` [Apid IB6, Y-I-P-Q-P-R-P-P-H-P-R-L] (H-YIPQPRPPHPRL-OH) returned an agar inhibition zone of 9 mm.

`CC[C@H](C)[C@H](NC(=O)[C@H](Cc1ccc(O)cc1)NC(=O)[C@@H](NC(=O)[C@@H]1CCCN1C(=O)[C@H](CCCNC(=N)N)NC(=O)[C@@H](N)CC(N)=O)C(C)C)C(=O)N1CCC[C@H]1C(=O)N[C@@H](CCC(N)=O)C(=O)N1CCC[C@H]1C(=O)N[C@@H](CCCNC(=N)N)C(=O)N1CCC[C@H]1C(=O)N1CCC[C@H]1C(=O)N[C@@H](Cc1c[nH]cn1)C(=O)N1CCC[C@H]1C(=O)N[C@@H](CCCNC(=N)N)C(=O)N[C@@H](CC(C)C)C(=O)O` [Apid Ib2, N-R-P-V-Y-I-P-Q-P-R-P-P-H-P-R-L] (H-NRPVYIPQPRPPHPRL-OH) registered an agar inhibition zone with E. coli NCTC 9001 [1] of 16 mm.

Compound `CC[C@H](C)[C@H](NC(=O)[C@H](Cc1ccc(O)cc1)NC(=O)[C@@H](NC(=O)[C@@H]1CCCN1)C(C)C)C(=O)N1CCC[C@H]1C(=O)N[C@@H](CCC(N)=O)C(=O)N1CCC[C@H]1C(=O)N[C@@H](CCCNC(=N)N)C(=O)N1CCC[C@H]1C(=O)N1CCC[C@H]1C(=O)N[C@@H](Cc1c[nH]cn1)C(=O)N1CCC[C@H]1C(=O)N[C@@H](CCCNC(=N)N)C(=O)N[C@@H](CC(C)C)C(=O)O` [Apid Ib4, P-V-Y-I-P-Q-P-R-P-P-H-P-R-L] (H-PVYIPQPRPPHPRL-OH) yielded an agar inhibition zone with E. coli NCTC 9001 [1] of 14 mm.

On to `CC[C@H](C)[C@H](NC(=O)[C@H](Cc1ccc(O)cc1)NC(=O)[C@@H](NC(=O)[C@@H]1CCCN1C(=O)[C@H](CCCNC(=N)N)NC(=O)[C@H](CC(N)=O)NC(=O)[C@H](CC(N)=O)NC(=O)CN)C(C)C)C(=O)N1CCC[C@H]1C(=O)N[C@@H](CCC(N)=O)C(=O)N1CCC[C@H]1C(=O)N[C@@H](CCCNC(=N)N)C(=O)N1CCC[C@H]1C(=O)N1CCC[C@H]1C(=O)N[C@@H](Cc1c[nH]cn1)C(=O)N1CCC[C@H]1C(=O)N[C@@H](CCCNC(=N)N)C(=O)N[C@@H](CC(C)C)C(=O)O` [Apid Ib] (H-GNNRPVYIPQPRPPHPRL-OH), for which the agar inhibition zone in the series on E. coli NCTC 9001 [1] is on record as 18 mm. In the series on E. coli NCTC 9001 [2], the bactericidal activity result was “possessed a bactericidal activity”.

In the case of `CC[C@H](C)[C@H](NC(=O)[C@H](CCCNC(=N)N)NC(=O)[C@@H]1CCCN1C(=O)[C@H](Cc1c[nH]cn1)NC(=O)[C@@H]1CCCN1C(=O)[C@@H]1CCCN1C(=O)[C@H](CCCNC(=N)N)NC(=O)[C@@H]1CCCN1C(=O)[C@H](CCC(N)=O)NC(=O)[C@@H]1CCCN1C(=O)[C@@H](NC(=O)[C@H](Cc1ccc(O)cc1)NC(=O)[C@@H](NC(=O)[C@@H]1CCCN1C(=O)[C@H](CCCNC(=N)N)NC(=O)[C@H](CC(N)=O)NC(=O)[C@H](CC(N)=O)NC(=O)[C@H](CC(N)=O)NC(=O)CN)C(C)C)[C@@H](C)CC)C(=O)O` [Apid NT+1] (H-GNNNRPVYIPQPRPPHPRI-OH), the minimal inhibitory concentration was 0.2 µg/mL (≈ 0.09 µM) in [3]; 100 µg/mL (≈ 45 µM) in series [4]; greater than 50 µg/mL in series [5]; 0.1 µg/mL (≈ 0.045 µM) in the series with Shigella flexneri CP 87; greater than 50 µg/mL in series [6]; 1 µg/mL (≈ 0.45 µM) in series [7]. Further, the minimal inhibitory concentration in series [8] was 2.5 µg/mL (≈ 1.12 µM); in [9] it was 0.02 µg/mL (≈ 0.009 µM); in series [10] it was 1 µg/mL (≈ 0.45 µM); in [11] it was 2.5 µg/mL (≈ 1.12 µM); in series [12] it was 2.5 µg/mL (≈ 1.12 µM); in [13], 25 µg/mL (≈ 11.2 µM). Also, the minimal inhibitory concentration is 0.1 µg/mL (≈ 0.045 µM) in series [14]; greater than 50 µg/mL in series [15]; 0.2 µg/mL (≈ 0.09 µM) in series [16]; 0.2 µg/mL (≈ 0.09 µM) in series [17]; 1 µg/mL (≈ 0.45 µM) in the series with Salmonella Newport CD 94; 0.1 µg/mL (≈ 0.045 µM) in series [18]. Further, the minimal inhibitory concentration in [19] was 100 µg/mL. The bactericidal activity result in the series with E. coli NCTC 9001 [2] was “possessed a bactericidal activity”.

Turning to `CC[C@H](C)[C@H](NC(=O)[C@H](Cc1ccc(O)cc1)NC(=O)[C@@H](NC(=O)[C@@H]1CCCN1C(=O)[C@H](CCCNC(=N)N)NC(=O)[C@H](CC(N)=O)NC(=O)[C@H](CC(N)=O)NC(=O)CN)C(C)C)C(=O)N[C@@H](CCC(N)=O)C(=O)N1CCC[C@H]1C(=O)N[C@@H](CCCNC(=N)N)C(=O)N1CCC[C@H]1C(=O)N1CCC[C@H]1C(=O)N[C@@H](Cc1c[nH]cn1)C(=O)N1CCC[C@H]1C(=O)N[C@@H](CCCNC(=N)N)C(=O)N[C@@H](CC(C)C)C(=O)O` [Apid PT-1] (H-GNNRPVYIQPRPPHPRL-OH), the minimal inhibitory concentration is 0.5 µg/mL (≈ 0.249 µM) in series [3]; 0.5 µg/mL (≈ 0.249 µM) in the series with Shigella flexneri CP 87; 0.05 µg/mL (≈ 0.0249 µM) in series [9]; 0.1 µg/mL (≈ 0.0497 µM) in series [10]; 0.02 µg/mL (≈ 0.00994 µM) in series [14]; 5 µg/mL (≈ 2.49 µM) in series [16]. In addition, the minimal inhibitory concentration in series [17] turned out to be 5 µg/mL (≈ 2.49 µM); in the series with Salmonella Newport CD 94, 5 µg/mL (≈ 2.49 µM); in series [18], 5 µg/mL (≈ 2.49 µM); in series [19] it was 150 µg/mL. Further, in the series with E. coli NCTC 9001 [2], the bactericidal activity result was “possessed a bactericidal activity”.

For the compound `CC[C@H](C)[C@H](NC(=O)[C@H](Cc1ccc(O)cc1)NC(=O)[C@@H](NC(=O)[C@@H]1CCCN1C(=O)[C@H](CCCNC(=N)N)NC(=O)[C@H](CC(N)=O)NC(=O)[C@H](CC(N)=O)NC(=O)CN)C(C)C)C(=O)N1CCC[C@H]1C(=O)N[C@@H](CCC(N)=O)C(=O)N1CCC[C@H]1C(=O)N[C@@H](CCCNC(=N)N)C(=O)N1CCC[C@H]1C(=O)N1CCC[C@H]1C(=O)N[C@@H](Cc1cnc[nH]1)C(=O)N1CCC[C@H]1C(=O)N[C@@H](CCCNC(=N)N)C(=O)N[C@@H](CC(C)C)C(=O)O` [bee 6b] (H-GNNRPVYIPQPRPPHPRL-OH), in the series with Tobacco leaf protoplasts (after immobilization in low melting agarose), the “cell division and callus formation” value is “normal cell division and callus formation occured”. The “visible effects during incubation” value with Tobacco leaf protoplasts (tobacco leaf protoplasts 10^6 cells/ml, 2 days, 10 ng/ml up to 50 μg/ml) is listed as “no visible effects were observed”.
